Activity calls are given as the source filed them. The calls are words filed in the database; no cut-off is given here.
Columns and labels:
[1] = test system: EBC-1; assay: Induction of apoptosis in human EBC-1 cells assessed as necrotic cells at 5 nM incubated for 24 hrs by Annexin V/FITC staining based flow cytometry analysis (reference value: 0.35 %); type: functional
[2] = test system: EBC-1; assay: Antitumor activity against human EBC-1 cells xenografted in ip dosed BALB/c nude mouse assessed as reduction in tumor growth administered for 7 days; type: functional, organism-based; details: dose 10-20 mg/kg, time 7.0 day
[3] = biological target: T1, Protein cereblon/Hepatocyte growth factor receptor (Homo sapiens, UniProt P08581+Q96SW2); assay: PROTAC activity at c-Met/CRBN in human EBC-1 cells assessed as reduction in AKR1C2 level at 15.6 nM incubated for 24 hrs by proteomics analysis; type: cell-based
Target sequence in this assay (P08581 25-1390 limits assumed): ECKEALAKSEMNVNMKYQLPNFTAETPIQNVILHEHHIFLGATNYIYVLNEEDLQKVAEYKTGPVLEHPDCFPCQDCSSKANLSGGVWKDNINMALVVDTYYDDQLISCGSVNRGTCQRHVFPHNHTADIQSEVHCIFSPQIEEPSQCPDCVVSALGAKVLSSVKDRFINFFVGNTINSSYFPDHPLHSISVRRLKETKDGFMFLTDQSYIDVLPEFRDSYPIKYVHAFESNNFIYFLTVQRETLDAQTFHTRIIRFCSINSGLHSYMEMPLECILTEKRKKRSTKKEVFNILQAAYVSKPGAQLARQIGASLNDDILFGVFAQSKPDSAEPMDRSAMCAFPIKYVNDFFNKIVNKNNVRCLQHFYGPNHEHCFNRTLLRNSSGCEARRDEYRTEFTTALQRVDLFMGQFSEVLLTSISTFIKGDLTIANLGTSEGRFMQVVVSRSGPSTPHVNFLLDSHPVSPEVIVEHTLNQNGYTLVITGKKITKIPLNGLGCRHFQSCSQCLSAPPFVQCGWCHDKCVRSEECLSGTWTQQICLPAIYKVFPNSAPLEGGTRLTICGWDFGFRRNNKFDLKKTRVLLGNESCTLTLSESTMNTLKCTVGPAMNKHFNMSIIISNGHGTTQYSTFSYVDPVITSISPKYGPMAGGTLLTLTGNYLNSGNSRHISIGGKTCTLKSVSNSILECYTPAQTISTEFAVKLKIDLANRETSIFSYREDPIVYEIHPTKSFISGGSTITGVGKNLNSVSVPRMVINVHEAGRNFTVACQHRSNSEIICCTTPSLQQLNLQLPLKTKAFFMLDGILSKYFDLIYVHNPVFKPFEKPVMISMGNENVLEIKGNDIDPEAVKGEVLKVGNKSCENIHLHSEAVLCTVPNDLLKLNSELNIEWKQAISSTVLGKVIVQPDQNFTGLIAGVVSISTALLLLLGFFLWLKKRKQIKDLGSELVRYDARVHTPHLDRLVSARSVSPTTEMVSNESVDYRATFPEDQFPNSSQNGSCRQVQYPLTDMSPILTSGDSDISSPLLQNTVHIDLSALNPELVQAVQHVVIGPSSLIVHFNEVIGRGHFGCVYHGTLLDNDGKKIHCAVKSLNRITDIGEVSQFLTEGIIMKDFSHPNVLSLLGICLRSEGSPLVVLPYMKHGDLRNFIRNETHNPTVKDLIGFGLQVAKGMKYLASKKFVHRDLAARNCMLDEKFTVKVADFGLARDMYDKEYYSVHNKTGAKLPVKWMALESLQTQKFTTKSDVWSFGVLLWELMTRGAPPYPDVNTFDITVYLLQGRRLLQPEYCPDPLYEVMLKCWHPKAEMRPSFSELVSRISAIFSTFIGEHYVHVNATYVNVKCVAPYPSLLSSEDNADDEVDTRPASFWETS
Target sequence in this assay (Q96SW2 whole entry partner): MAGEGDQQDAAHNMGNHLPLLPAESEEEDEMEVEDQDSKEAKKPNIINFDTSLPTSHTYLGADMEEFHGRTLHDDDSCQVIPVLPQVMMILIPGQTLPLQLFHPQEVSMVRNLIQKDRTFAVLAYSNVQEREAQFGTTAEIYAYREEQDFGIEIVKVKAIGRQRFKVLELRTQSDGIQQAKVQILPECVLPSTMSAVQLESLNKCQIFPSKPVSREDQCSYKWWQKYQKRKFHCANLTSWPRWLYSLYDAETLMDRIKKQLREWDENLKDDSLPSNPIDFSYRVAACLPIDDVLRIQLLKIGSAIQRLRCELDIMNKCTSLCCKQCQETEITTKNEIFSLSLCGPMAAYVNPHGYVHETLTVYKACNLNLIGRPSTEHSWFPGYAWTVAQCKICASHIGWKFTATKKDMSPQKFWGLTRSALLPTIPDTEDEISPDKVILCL

[4] = biological target: T1, Protein cereblon/Hepatocyte growth factor receptor; assay: PROTAC activity at c-Met/CRBN in human HCT-116 cells assessed as induction of c-Met degradation incubated for 24 hrs by Western blotting analysis; type: cell-based
Target sequence in this assay (P08581 whole entry): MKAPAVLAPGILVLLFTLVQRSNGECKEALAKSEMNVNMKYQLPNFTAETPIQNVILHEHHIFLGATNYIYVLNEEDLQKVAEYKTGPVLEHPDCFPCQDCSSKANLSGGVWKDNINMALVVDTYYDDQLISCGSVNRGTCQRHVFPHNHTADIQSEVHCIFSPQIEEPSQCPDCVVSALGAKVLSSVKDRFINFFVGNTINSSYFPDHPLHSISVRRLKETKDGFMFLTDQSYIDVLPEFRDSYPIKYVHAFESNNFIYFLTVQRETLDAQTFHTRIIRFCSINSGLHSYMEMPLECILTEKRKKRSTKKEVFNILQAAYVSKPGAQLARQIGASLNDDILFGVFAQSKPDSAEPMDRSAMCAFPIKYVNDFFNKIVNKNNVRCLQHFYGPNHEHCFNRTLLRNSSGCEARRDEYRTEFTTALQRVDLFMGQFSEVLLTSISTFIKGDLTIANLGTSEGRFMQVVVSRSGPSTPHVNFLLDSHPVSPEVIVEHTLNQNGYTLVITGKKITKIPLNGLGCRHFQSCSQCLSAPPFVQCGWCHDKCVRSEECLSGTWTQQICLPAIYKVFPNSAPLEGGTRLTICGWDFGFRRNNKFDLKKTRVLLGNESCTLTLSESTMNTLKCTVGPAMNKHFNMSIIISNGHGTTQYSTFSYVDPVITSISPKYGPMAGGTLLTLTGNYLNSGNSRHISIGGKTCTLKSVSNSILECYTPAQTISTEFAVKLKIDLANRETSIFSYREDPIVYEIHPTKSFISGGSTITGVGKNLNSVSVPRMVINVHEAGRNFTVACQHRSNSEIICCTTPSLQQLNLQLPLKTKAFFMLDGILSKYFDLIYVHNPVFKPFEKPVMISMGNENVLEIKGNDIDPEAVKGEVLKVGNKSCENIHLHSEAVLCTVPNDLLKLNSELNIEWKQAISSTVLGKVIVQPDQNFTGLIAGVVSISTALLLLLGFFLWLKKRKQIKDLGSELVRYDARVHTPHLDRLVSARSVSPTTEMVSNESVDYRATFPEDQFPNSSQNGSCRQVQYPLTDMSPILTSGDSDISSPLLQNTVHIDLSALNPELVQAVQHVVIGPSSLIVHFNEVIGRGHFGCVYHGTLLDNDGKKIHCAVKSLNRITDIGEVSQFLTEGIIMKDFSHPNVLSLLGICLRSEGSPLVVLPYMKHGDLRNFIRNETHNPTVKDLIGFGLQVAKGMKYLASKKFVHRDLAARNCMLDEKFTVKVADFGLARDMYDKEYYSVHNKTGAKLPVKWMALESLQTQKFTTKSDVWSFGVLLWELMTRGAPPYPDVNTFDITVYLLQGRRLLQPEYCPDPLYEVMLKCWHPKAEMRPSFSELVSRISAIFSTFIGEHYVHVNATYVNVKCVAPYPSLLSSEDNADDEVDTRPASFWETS
Target sequence in this assay (Q96SW2 whole entry): as the sequence (Q96SW2 whole entry partner) above

[5] = Toxicity in BALB/c nude mouse assessed as body weight loss at 10 to 20 mg/kg, ip administered for 7 days; type: organism-based; details: in vivo, 168 h, dose 10-20 mg/kg, time 7 day
[6] = Toxicity in BALB/c nude mouse assessed as lung damage at 10 to 20 mg/kg, ip administered for 7 days by H and E staining based analysis; type: organism-based; details: in vivo, 168 h, dose 10-20 mg/kg, time 7 day
[7] = biological target: T1, Protein cereblon/Hepatocyte growth factor receptor; assay: PROTAC activity at c-Met/CRBN in human A549 cells assessed as induction of c-Met degradation at 100 nM incubated for 24 hrs by Western blotting analysis relative to control; type: cell-based
Target sequence in this assay (P08581 25-1390 limits assumed): as the sequence (P08581 25-1390 limits assumed) above
Target sequence in this assay (Q96SW2 whole entry partner): as the sequence (Q96SW2 whole entry partner) above

[8] = test system: EBC-1; assay: Induction of apoptosis in human EBC-1 cells assessed as early apoptotic cells at 50 nM incubated for 24 hrs by Annexin V/FITC staining based flow cytometry analysis (reference value: 2.11 %); type: functional
[9] = test system: EBC-1; assay: Antiproliferative activity against human EBC-1 cells assessed as cell viability incubated for 72 hrs by MTT assay; type: functional, cell-based; details: EBC-1, 72 h
[10] = biological target: T1, Protein cereblon/Hepatocyte growth factor receptor; assay: PROTAC activity at c-Met/CRBN in human EBC-1 cells assessed as reduction in c-Met level at 15.6 nM incubated for 24 hrs by proteomics analysis; type: cell-based
Target sequence in this assay (P08581 25-1390 limits assumed): as the sequence (P08581 25-1390 limits assumed) above
Target sequence in this assay (Q96SW2 whole entry partner): as the sequence (Q96SW2 whole entry partner) above

[11] = test system: EBC-1; assay: PROTAC activity at c-Met […] mutant /CRBN in human EBC-1 cells assessed as induction of c-Met degradation incubated for 24 hrs by Western blotting analysis; type: cell-based; details: dose <= 1000.0 nM

For COc1ccc(C(=O)N2CCC3(CCN(C(=O)CN4CCC(COc5cnc(-c6cccc(Cn7nc(-c8cccc(C#N)c8)ccc7=O)c6)nc5)CC4)CC3)CC2)cc1N1CCC(=O)NC1=O, the Activity [1] was 0.42%, the Activity [2] was “Dose-dependent-effect” and the Activity [3] was “Active”. The DC50 [4] was < 15.6 nM, the Activity [5] was “Non-toxic” and the Activity [6] was “Non-toxic”. The Activity [7] was “inactive”, the Activity [8] was 33.9% and the IC50 [9] was 4 nM. For the same molecule, the Activity [10] was “Active” and the Activity [11] was “Dose-dependent-effect”.
